Measured values taken from PMC7757987, “Antitumor Activity and Mechanism Study of Riluzole and Its Derivatives” (Iranian Journal of Pharmaceutical Research : IJPR, 2020).

Legend:
HeLa cells [1] = experiment: Flow cytometric analysis of cell apoptosis (annexin V-FITC/PI); format: cell-based, human; details: 24 h, control 0.02%
Description: The cell apoptosis analysis was evaluated by using the annexin V-FITC apoptosis detection kit (Beyotime, China). Briefly, the HeLa cells (1×10^6 cells/well) were seeded into 6-well culture plates and incubated for 24 h. Then the cells were incubated for 24 h with the compound 4a (12.5, 25 and 50 μmol/L). The cells were then rinsed, resuspended in 60 μL binding buffer and incubated for 10 min with 5 μL annexin V-FITC at room temperature, followed by an addition of 120 μL binding buffer and 10 μL PI. The solutions were gently mixed and analyzed with the FACScan flow cytometry. The cells that were not treated were used as the control ([23]).

HeLa cells [2] = experiment: Cell morphological assessment by Hoechst 33258 staining; format: cell-based, human; details: HeLa, 12.5, 25 and 50 μmol/L, 24 h
Description: The cell morphological assessment was carried out as described by Wang S ([21]). Morphological changes, such as chromosomal condensation and fragmentation in the nuclei of HeLa, were observed by Hoechst 33258 staining. In brief, HeLa cells were seeded at a concentration of 1×10^6 cells/well in 6-well plate and treated with compound 4a (12.5, 25 and 50 μmol/L) for 24 h. Subsequently, the cells were harvested and washed once with PBS and then fixed with 4% paraformaldehyde in PBS for 10 min. After staining with 10 mg/L Hoechst 33258 for 5 min, the cells were visualized under a fluorescent microscope (Nikon, Japan).

HeLa cells [3] = experiment: Scratch wound healing (anti-migration) assay; format: cell-based, human; details: 25 μmol/L, 24 h
Description: Once the monolayer was formed, a small scratch was made in the plate using a 10 μL pipette tip (0 h, day 1). The monolayer was once washed with PBS to remove debris or the detached cells from the monolayer. […] Images were taken using an inverted microscope ([19]). The experiments were performed in triplicate.
The relative scratch healing rate was calculated as follows according to reference ([20]),
Scratch healing rate = (scratch width at 0 h – the remaining scratch width at 24 h)/scratch width in 0 h×100%

[4] = tested on: HepG2 (human liver cancer cell line); experiment: CCK-8 anti-proliferative assay, HepG2; format: cell-based
Description: (§1) HeLa (human cervical cancer cell line), HepG2 (human liver cancer cell line), SP2/0 (mouse myeloma cell line), and LO2 (human normal liver cell line) were cultured in DMEM medium. Each medium was supplemented with 10% fetal bovine serum, 1% L-glutamine and 1% penicillin/streptomycin solution. The cell lines were kept in the incubator at 37 ℃ in a humidified atmosphere (90% RH) containing 5% CO2. […] The cell lines SP2/0 and MCF-7 were obtained from Laboratory Center of Shaanxi Province People’s Hospital.
(§2) 2×10^3 cells per well were planted into 96-well plates in 100 μL growth medium and incubated for 24 h. […] The mixture was incubated at 37 ℃ under a humidified 5% CO2 atmosphere. After incubation, 10 μL CCK-8 solution was added to each well and the cells were further incubated for 2 h at 37 ℃ according to the CCK-8 Technical Manual. Then, the OD value for each well was read at wavelength 450 nm to determine the cell viability on a microplate reader (Synergy HT, USA). […] The independent experiment was repeated at least three times. The percentage of growth inhibition was calculated as follows according to reference ([18]),
(§3) % of growth inhibition = [1 - absorbance of treated cells/absorbance of untreated cells] × 100%

[5] = CCK-8 cytotoxicity assay, normal LO2 cells; format: cell-based, human; details: human, LO2 normal liver cells; CCK-8, 48 h, normal liver cells; read-out: Cytotoxicity (IC50) L02
Description: as §1, §2, §3

[6] = tested on: LO2 (human normal liver cell line); experiment: CCK-8 cytotoxicity assay, normal LO2 cells; format: cell-based; details: CCK-8
Description: as §1, §2, §3

[7] = tested on: HeLa (human cervical cancer cell line); experiment: CCK-8 anti-proliferative assay, HeLa; format: cell-based
Description: as §1, §2, §3

[8] = tested on: MCF-7 (human breast cancer cell line); experiment: CCK-8 anti-proliferative assay, MCF-7; format: cell-based
Description: as §1, §2, §3

[9] = tested on: SP2/0 (mouse myeloma cell line); experiment: CCK-8 anti-proliferative assay, SP2/0; format: cell-based
Description: as §1, §2, §3

HeLa cells [10] = experiment: Flow cytometric analysis of the cell cycle (PI); format: cell-based, human; details: 24 h, control 3.66%
Description: Cell cycle assay was performed using the cell cycle and apoptosis analysis kit (Beyotime, China) and following the manufacturer’s instructions. The HeLa cells were treated with the indicated concentrations of compound 4a (12.5, 25 and 50 μmol/L) for 24 h. Next, the cells were harvested and washed twice with PBS. The cells were fixed with cold 70% ethanol for 12 h at 4 ℃ and were harvested and centrifuged at 1000 g for 5 min. Then, the cell density was adjusted to 1×10^6 cells/mL with PBS. Finally, the cells were stained with a propidium iodide (PI) solution (50 μg/mL). The number of cells in each phase of the cell cycle was analyzed by flow cytometry (FACSCalibur; BD Bioscience, USA).

[11] = tested on: Bax, Bcl-2, Caspase-3, Cleaved caspase-3, PI3K in HeLa cells; experiment: Western blot assay; format: cell-based, human; details: 24 h; for Ratio of Bax/Bcl-2: HeLa, control 0.072
Description: HeLa cells were seeded into 6-well plates at 10^6 cells per well with different concentrations of compound 4a (12.5, 25 and 50 μmol/L) and incubated at 37 ℃ for 24 h in the presence of 10% FBS. The controls were treated with vehicle (0.5% DMSO). The cells were lysed into ice-cold cell lysis buffer for 30 min and centrifuged at 13000 g for 15 min at 4 ℃. The protein concentrations of the supernatant were determined by a BCA protein Assay Kit. Equal amounts of protein lysates were separated on 10% SDS-PAGE (sodium dodecyl sulfate-polyacrylamide gel electrophoresis) and transferred onto PVDF membranes. The membranes were blocked with 5% non-fat milk in TBST (0.1% Tween 20 in TBS) buffer for 2 h, incubated with primary antibodies at 1:1000 dilutions at 4 ℃, and washed by TBST four times. Then, the membrane was immunobloted with Bax, Bcl-2, Caspase-3, Cleaved caspase-3, PI3K, and β-actin primary antibodies at 1:1000 dilutions at 4 °C for 12 h. After secondary incubation in horseradish peroxidase-conjugated secondary antibodies at 1:3000 at room temperature for 2 h, protein bands were visualized on X-ray film (Kodak, Japan) using ECL (Beyotime, China). The immunoblots were detected by densitometric analysis. Equal loading of protein in each lane was confirmed by probing with β-actin antibody ([24]).

For `CCNc1nc2ccc(OC(F)(F)F)cc2s1` [Compound 4a, 2-(N-ethylamine)-6-trifluoromethoxy-benzothiazole], the “Early apoptotic rate (LR quadrant)” value (HeLa cells [1]; 12.5 μmol/L) was 4.76%, the “Early apoptotic rate (LR quadrant)” value (HeLa cells [1]; 25 μmol/L) was 9.63% and the “Early apoptotic rate (LR quadrant)” value (HeLa cells [1]; 50 μmol/L) was 19.81%. The melting point was 133 to 134 °C, the “Nuclear morphology (Hoechst 33258)” value (HeLa cells [2]) was “nuclear condensation and fragmentation” and the “Relative scratch healing rate” value (HeLa cells [3]) was “less than 20%”. For the same compound, the “Effect on HeLa cell migration” value (HeLa cells [3]; versus control group) was “significantly slower”, the IC50 ([4]; Homo sapiens, HepG2, CCK-8, 48 h, read-out: Cytotoxicity (IC50) HepG2) was 33.7 ± 1.04 µM and the “Selectivity index (SI) HepG2” value ([4]; IC50 LO2 / IC50 HepG2) was 1.93. The IC50 at 48 h [5] was 65 ± 4.38 µM, the “Concentration up to which nontoxic to LO2 cells” value [6] was “up to 65 μmol/L” and the IC50 ([7]; Homo sapiens, HeLa, CCK-8, 48 h, read-out: Cytotoxicity (IC50) HeLa) was 7.76 ± 0.45 µM. For the same compound, the “Selectivity index (SI) HeLa” value ([7]; IC50 LO2 / IC50 HeLa) was 8.37, the IC50 ([8]; Homo sapiens, MCF7, CCK-8, 48 h, read-out: Cytotoxicity (IC50) MCF-7) was 7.72 ± 0.53 µM and the “Selectivity index (SI) MCF-7” value ([8]; IC50 LO2 / IC50 MCF-7) was 8.41. For the same compound, the “Selectivity index (SI) SP2/0” value ([9]; IC50 LO2 / IC50 SP2/0) was 1.27, the IC50 ([9]; Mus musculus, CCK-8, 48 h, read-out: Cytotoxicity (IC50) SP2/0) was 51.1 ± 2.73 µM and the “Cells in the G2/M phase” value (HeLa cells [10]; 12.5 μmol/L) was 3.85%. For the same compound, the “Cells in the G2/M phase” value (HeLa cells [10]; 25 μmol/L) was 6.63%, the “Cells in the G2/M phase” value (HeLa cells [10]; 50 μmol/L) was 8.00% and the “Ratio of Bax/Bcl-2” value ([11]; 12.5μM) was 0.087. For the same compound, the “Ratio of Bax/Bcl-2” value ([11]; 25μM) was 1.092, the “Ratio of Bax/Bcl-2” value ([11]; 50μM) was 1.929 and the “Expression level of Caspase-3” value ([11]; HeLa, 12.5, 25 and 50 μmol/L) was “not remarkably concentration-dependent change”. The “Expression level of PI3K” value ([11]; HeLa, 12.5, 25 and 50 μmol/L) was “not remarkably concentration-dependent change”, the “Expression of Bcl-2” value ([11]; HeLa, 12.5, 25 and 50 μmol/L) was “reduced” and the “Level of Bax” value ([11]; HeLa, 12.5, 25 and 50 μmol/L) was “increased”. The “Level of Cleaved caspase-3” value ([11]; HeLa, 12.5, 25 and 50 μmol/L) was “increased”.
